We go through one compound from patent publication US20080132412A1, “7-Amino-6-Heteroaryl-1,2,4-Triazolo[1,5-A]Pyrimidines and Their Use for Controlling Harmful Fungi” (BASF Aktiengesellschaft, priority 2004, published 2008).

In the test the test system is Septoria tritici. Description: Speckled leaf blotch pathogen Septoria tritici in the microtiter test. The test is classed as cell-based. As to conditions: 125 ppm, microtiter plate, absorption at 405 nm on day 7 after inoculation. As to the method:
The stock solution is pipetted into a microtiter plate (MTP) and diluted to the stated active compound concentration using an aqueous, malt-based nutrient medium for fungi. An aqueous spore suspension of Septoria tritici was then added. The plates were placed in a water vapor-saturated chamber at temperatures of 18° C. Using an absorption photometer, the MTPs were measured at 405 nm on day 7 after the inoculation. The parameters measured were compared to the growth of the active compound-free control variant and the fungus- and active compound-free blank value to determine the relative growth in % of the pathogens in the individual active compounds. The relative growth at 125 ppm of compound 1 was 0%.

For `Cc1nc2ncnn2c(N2CCC(C)CC2)c1-c1ncncc1Cl` [compound 1, 6-(5-chloropyrimidin-4-yl)-5-methyl-7-(4-methylpiperidin-1-yl)-[1,2,4]triazolo[1,5-a]pyrimidine], the relative growth worked out at 0%.
